One may read the Ki as a dissociation constant, usually derived from enzyme kinetics or from competition with a known ligand. Broadly, the IC50 is the point on the concentration scale where inhibition reaches its midpoint.

In the first experiment the target is T1, purified recombinant human Aggrecanase-1 (rAgg1) (Homo sapiens, UniProt O75173).
T1 sequence (O75173 213-837): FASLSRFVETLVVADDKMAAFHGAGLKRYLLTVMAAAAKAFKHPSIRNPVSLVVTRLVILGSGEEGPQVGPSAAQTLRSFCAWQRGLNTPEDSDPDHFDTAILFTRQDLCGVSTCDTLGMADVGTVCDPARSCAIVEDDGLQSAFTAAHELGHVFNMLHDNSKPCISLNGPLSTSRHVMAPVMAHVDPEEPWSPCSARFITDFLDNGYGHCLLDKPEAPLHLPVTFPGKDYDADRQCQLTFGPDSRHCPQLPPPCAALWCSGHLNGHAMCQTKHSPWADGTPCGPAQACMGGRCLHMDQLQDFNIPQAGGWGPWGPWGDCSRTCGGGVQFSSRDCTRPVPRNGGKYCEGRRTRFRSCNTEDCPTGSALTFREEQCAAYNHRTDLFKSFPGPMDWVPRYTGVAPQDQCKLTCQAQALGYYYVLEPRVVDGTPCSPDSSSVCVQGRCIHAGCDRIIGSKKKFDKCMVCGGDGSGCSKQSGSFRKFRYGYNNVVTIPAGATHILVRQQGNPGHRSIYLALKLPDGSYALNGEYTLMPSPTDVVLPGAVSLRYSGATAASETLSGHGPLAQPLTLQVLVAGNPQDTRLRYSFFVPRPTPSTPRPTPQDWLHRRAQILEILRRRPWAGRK
The experiment can be described thus: In vitro fluorescence screen for Aggrecanase-1 inhibitors. The format is biochemical. The following applies: Table 1.
On to `COc1cc(CNC(=O)[C@H](CCC(=O)O)NC(=O)c2cccc3c2Cc2ccccc2-3)cc(OC)c1OC` [Example 8LLLL, N^2-(9H-fluoren-1-ylcarbonyl)-N^1-(3,4,5-trimethoxybenzyl)-L-α-glutamine], for which the “Agg1 IC50 (nM)” value was “no inh”. With `O=C(O)CC[C@H](NC(=O)c1ccc(-c2cccs2)o1)C(=O)NCc1ccccc1` [Example 21D, N^1-benzyl-N^2-(5-thien-2-yl-2-furoyl)-L-α-glutamine], the “Agg1 IC50 (nM)” value is reported as “no inh”.

Still in this experiment, the particulars now being: Table 1; @ 7,500 (nM).
As for `CCCCOc1ccc(-c2ccc(C(=O)N[C@@H](CCC(=O)O)C(=O)NCc3ccccc3)cc2)cc1` [Example 15B, N^1-benzyl-N^2-[(4′-butoxy-1,1′-biphenyl-4-yl)carbonyl]-L-α-glutamine], the “Agg1 % @ concentration” value worked out at 67% @.

The experiment is the same for the next values; noted with them: Table 1; @ 16,700 (nM).
With `CCOc1ccc(-c2ccc(C(=O)N[C@@H](CCC(=O)O)C(=O)NCc3ccccc3)cc2)cc1` [Example 14, N^1-benzyl-N^2-[(4′-ethoxy-1,1′-biphenyl-4-yl)carbonyl]-L-α-glutamine], the “Agg1 % @ concentration” value amounted to 60% @.

The experiment is the same for the next values; noted with them: Table 1; enzyme not given, column follows Agg1 IC50; read-out: Ki.
As for `COc1cc(CNC(=O)[C@H](CCC(=O)O)NC(=O)c2ccc3c(c2)C(=O)c2ccccc2-3)cc(OC)c1OC` [Example 8MMMM, N^2-[(9-oxo-9H-fluoren-2-yl)carbonyl]-N^1-(3,4,5-trimethoxybenzyl)-L-α-glutamine], the Ki amounted to 57 nM.

The same experiment, now with this note: Table 1; read-out: Agg1 IC50.
In the case of `O=C(O)CC[C@H](NC(=O)c1ccc(-c2ccccn2)cc1)C(=O)NCc1ccccc1` [Example 12E, N^1-benzyl-N^2-(4-pyridin-2-ylbenzoyl)-L-α-glutamine], the IC50 is 1800 nM.

For `O=C(O)CC[C@H](NC(=O)c1ccc(-c2ccc(NC(=O)Cc3ccccc3)cc2)cc1)C(=O)O` [Example 26, N-({4′-[(Phenylacetyl)amino]1,1′-biphenyl-4-yl}carbonyl)-L-α-glutamic acid], the IC50 stood at 5000 nM. `O=C(O)CC[C@H](NC(=O)c1ccc(-c2cccnc2)cc1)C(=O)NCc1ccccc1` [Example 12C, N^1-benzyl-N^2-(4-pyridin-3-ylbenzoyl)-L-α-glutamine]: the IC50 stood at 25000 nM.

On to `COc1cc(CNC(=O)[C@H](CCC(=O)O)NC(=O)c2ccc3c(c2)C(=O)c2ccccc2-3)cc(OC)c1OC` [Example 8MMMM, N^2-[(9-oxo-9H-fluoren-2-yl)carbonyl]-N^1-(3,4,5-trimethoxybenzyl)-L-α-glutamine], for which the IC50 worked out at 47 nM. The same measure, in the same setting: for `COc1cccc(CNC(=O)[C@H](CCC(=O)O)NC(=O)Cc2ccc(-c3ccccc3)cc2)c1` [Example 8PPPPPP, N^2-(1,1′-biphenyl-4-ylacetyl)-N^1-(3-methoxybenzyl)-L-α-glutamine] the value was above 33000 nM; for `O=C(O)CC[C@H](NC(=O)c1ccc(-c2ccccc2)cc1)C(=O)NCc1ccccc1` [Example 8EEEE, N^1-benzyl-N^2-(1,1-biphenyl-4-ylcarbonyl)-L-α-glutamine], 400 nM; for `COc1ccc(-c2ccc(CCNC(=O)[C@H](CCC(=O)O)NC(=O)c3ccc(-c4ccccc4)cc3)cc2)cc1` [Example 10B, N^2-(biphenyl-4-ylcarbonyl)-N^1-[2-(4′-methoxybiphenyl-4-yl)ethyl]-L-α-glutamine], 150 nM.

Regarding `CC(C)(Cc1ccc(Cl)cc1)NC(=O)[C@H](CCC(=O)O)NC(=O)c1ccc2c(c1)Cc1ccccc1-2` [Example 6E, N^1-[2-(4-chlorophenyl)-1,1-dimethylethyl]-N^2-(9H-fluoren-2-ylcarbonyl)-L-α-glutamine], the IC50 came out at 56 nM. Take `C#Cc1ccc(-c2ccc(C(=O)N[C@@H](CCC(=O)O)C(=O)NCc3ccccc3)cc2)cc1` [Example 12B, N^1-benzyl-N^2-[(4′-ethynyl-1,1′-biphenyl-4-yl)carbonyl]-L-α-glutamine]: the IC50 came to 35000 nM. The same measure, in the same setting: the result for `O=C(O)CC[C@H](NC(=O)c1ccc(-c2ccccc2)cc1)C(=O)NCCc1ccccc1F` [Example 8TT, N^2-(biphenyl-4-ylcarbonyl)-N^1-[2-(2-fluorophenyl)ethyl]-L-α-glutamine] reads 300 nM; that for `CC(C)(C)c1ccc(CNC(=O)[C@H](CCC(=O)O)NC(=O)c2ccc(-c3ccccc3)cc2)cc1` [Example 8KK, N^2-(1,1′-biphenyl-4-ylcarbonyl)-N^1-(4-tert-butylbenzyl)-L-α-glutamine], 180 nM; that for `O=C(O)CC[C@H](NC(=O)c1ccc(Nc2ncccn2)cc1)C(=O)O` [Example 1, N-[4-(pyrimidin-2-ylamino)benzoyl]-L-glutamic acid], 900 nM. Still for that read-out and setting: the result for `O=C(O)CC[C@H](NC(=O)c1ccc(-c2ccccc2)cc1)C(=O)NCc1cccc2ccccc12` [Example 8N, N^2-(1,1′-biphenyl-4-ylcarbonyl)-N^1-(1-naphthylmethyl)-L-α-glutamine] reads 290 nM; that for `C=CCOc1ccc(-c2ccc(C(=O)N[C@@H](CCC(=O)O)C(=O)NCc3ccccc3)cc2)cc1` [Example 15E, N^2-{[4′-(allyloxy)-1,1′-biphenyl-4-yl]carbonyl}-N^1-benzyl-L-α-glutamine], 3500 nM; that for `COc1cc(COc2ccc(-c3ccc(C(=O)N[C@@H](CCC(=O)O)C(=O)NCc4ccccc4)cc3)cc2)cc(OC)c1` [Example 15G, N^1-benzyl-N^2-({4′-[(3,5-dimethoxybenzyl)oxy]-1,1′-biphenyl-4-yl}carbonyl)-L-α-glutamine], 2200 nM.

As for `CCOc1cccc(-c2ccc(C(=O)N[C@@H](CCC(=O)O)C(=O)NCc3ccccc3)o2)c1` [Example 21A, N^1-benzyl-N^2-[5-(3-ethoxyphenyl)-2-furoyl]-L-α-glutamine], the IC50 is 2500 to 7500 nM. The same measure, in the same setting: the result for `COc1ccc(CNC(=O)[C@H](CCC(=O)O)NC(=O)c2ccc(-c3ccccc3)cc2)cc1` [Example 8K, N^2-(1,1′-biphenyl-4-ylcarbonyl)-N^1-(4-methoxybenzyl)-L-α-glutamine] reads 300 nM; that for `O=C(O)CC[C@H](NC(=O)c1ccc2c(c1)Cc1ccccc1-2)C(=O)NCCCCCCO` [Example 8VVVVVV, N^2-(9H-fluoren-2-ylcarbonyl)-N^1-(6-hydroxyhexyl)-L-α-glutamine], 46 nM; that for `O=C(O)CC[C@H](NC(=O)c1ccc(-c2ccccc2)cc1)C(=O)NCCc1ccc(-c2ccncc2)cc1` [Example 10H, N^2-(biphenyl-4-ylcarbonyl)-N^1-[2-(4-pyridin-4-ylphenyl)ethyl]-L-α-glutamine], 300 nM.

As to `O=C(O)CC[C@H](NC(=O)c1ccc(Nc2ncccn2)cc1)C(=O)NCc1ccccc1` [Example 8UUUUUU, N^1-benzyl-N^2-[4-(pyrimidin-2-ylamino)benzoyl]-L-α-glutamine], the IC50 was 4000 nM. Same read-out and setting: for `O=C(O)CC[C@H](NC(=O)c1ccc(-c2ccccc2)cc1)C(=O)NCCc1cccc(-c2ccccn2)c1` [Example 10I, N^2-(biphenyl-4-ylcarbonyl)-N^1-[2-(3-pyridin-2-ylphenyl)ethyl]-L-α-glutamine] the value was 320 nM; for `CCCCCCNC(=O)[C@H](CCC(=O)O)NC(=O)c1ccc(Oc2ccccc2)cc1` [Example 8QQQQ, N^1-hexyl-N^2-(4-phenoxybenzoyl)-L-α-glutamine], 9600 nM. Same read-out and setting: for `O=C(O)CC[C@H](NC(=O)c1ccc(-c2ccc(NC(=O)c3ccc(F)cc3)cc2)cc1)C(=O)NCc1ccccc1` [Example 24B, N^1-benzyl-N^2-({4′-[(4-fluorobenzoyl)amino]1,1′-biphenyl-4-yl}carbonyl)-L-α-glutamine] the value was around 2200 nM; for `NC(=O)[C@H](CCC(=O)O)NC(=O)c1ccc(Nc2ncccn2)cc1` [Example 3, N^2-[4-(pyrimidin-2-ylamino)benzoyl]-L-alpha-glutamine], 12700 nM; for `CCCCCCNC(=O)[C@H](CCC(=O)O)NC(=O)c1ccc2c(c1)C(=O)c1ccccc1-2` [Example 8RRRR, N^1-hexyl-N^2-[(9-oxo-9H-fluoren-2-yl)carbonyl]-L-α-glutamine], 122 nM. For `O=C(O)CC[C@H](NC(=O)c1ccc(-c2ccccc2)cc1F)C(=O)NCc1ccccc1` [Example 17ZZ, N^1-benzyl-N^2-[(3-fluoro-1,1′-biphenyl-4-yl)carbonyl]-L-α-glutamine], the IC50 was determined as 200 nM.

Consider `O=C(O)CC[C@H](NC(=O)c1ccc(-c2ccc(OCc3ccc4ccccc4c3)cc2)cc1)C(=O)NCc1ccccc1` [Example 15H, N^1-benzyl-N^2-{[4′-(2-naphthylmethoxy)-1,1′-biphenyl-4-yl]carbonyl}-L-α-glutamine], for which the IC50 was determined as 200 nM. On the same count and under the same terms, the result for `Cc1cccc(CNC(=O)[C@H](CCC(=O)O)NC(=O)c2ccc(-c3ccccc3)cc2)c1C` [Example 8HH, N^2-(1,1′-biphenyl-4-ylcarbonyl)-N^1-(2,3-dimethylbenzyl)-L-α-glutamine] reads 160 nM; that for `O=C(O)CC[C@H](NC(=O)c1ccc(-c2ccc(NC(=O)c3ccccc3)cc2)cc1)C(=O)NCc1ccccc1` [Example 24C, N^2-{[4′-(benzoylamino)-1,1′-biphenyl-4-yl]carbonyl}-N^1-benzyl-L-α-glutamine], around 300 nM. In the case of `CCCCCCNC(=O)[C@H](CCC(=O)O)NC(=O)c1cccc2c1Cc1ccccc1-2` [Example 8PPPP, N^2-(9H-fluoren-1-ylcarbonyl)-N^1-hexyl-L-α-glutamine], the IC50 is above 50000 nM.

The same experiment, now with this note: Table 2; read-out: Agg1 IC50.
Turning to `CCCCN(C)C(=O)[C@H](CCC(=O)O)NC(=O)c1ccc(-c2ccccc2)cc1` [Example 8EEEEEE, N^2-(biphenyl-4-ylcarbonyl)-N-butyl-N-methyl-L-α-glutamine], the IC50 worked out at 5000 nM.

Source of the values: US7998965B2, “Glutamate aggrecanase inhibitors” (Wyeth LLC, priority 2005, dated 2011).
